Each compound was assayed against T1, GR (Homo sapiens, UniProt P04150) (assay: In Vitro GR Luciferase Reporter Assay (antagonist mode, CHO-K1-GR-MMTV-Luc reporter cells)). Conditions: antagonist assay with 10 nM Dexamethasone, 18-24 hours.
T1 construct: expressed in transfected cells; host or cells: CHO-K1
T1 sequence (P04150 1-777): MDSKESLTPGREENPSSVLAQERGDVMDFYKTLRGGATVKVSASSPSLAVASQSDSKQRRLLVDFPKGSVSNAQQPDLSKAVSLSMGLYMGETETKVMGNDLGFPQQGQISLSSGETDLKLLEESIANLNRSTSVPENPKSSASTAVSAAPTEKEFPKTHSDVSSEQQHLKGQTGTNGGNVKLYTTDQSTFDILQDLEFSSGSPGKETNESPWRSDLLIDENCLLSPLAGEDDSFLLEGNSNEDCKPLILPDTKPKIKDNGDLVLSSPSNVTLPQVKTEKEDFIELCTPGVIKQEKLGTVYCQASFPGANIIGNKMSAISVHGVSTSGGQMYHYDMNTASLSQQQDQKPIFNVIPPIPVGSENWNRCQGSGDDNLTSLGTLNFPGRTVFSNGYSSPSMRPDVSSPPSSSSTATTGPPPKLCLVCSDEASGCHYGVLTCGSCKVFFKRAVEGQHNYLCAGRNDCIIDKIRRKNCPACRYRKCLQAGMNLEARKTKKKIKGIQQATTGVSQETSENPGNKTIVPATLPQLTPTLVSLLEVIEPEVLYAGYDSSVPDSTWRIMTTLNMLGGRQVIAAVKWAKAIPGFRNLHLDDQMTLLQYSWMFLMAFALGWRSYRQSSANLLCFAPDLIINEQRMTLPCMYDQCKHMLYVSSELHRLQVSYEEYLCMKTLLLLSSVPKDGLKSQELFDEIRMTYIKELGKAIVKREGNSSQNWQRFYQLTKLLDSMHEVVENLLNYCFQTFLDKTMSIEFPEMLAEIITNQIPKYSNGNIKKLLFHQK
Assay type: cell-based
Outline: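 Antagonist mode: compounds (8 serial 1:5 dilutions) added to GR-MMTV-luciferase CHO-K1 reporter cells co-exposed to 10 nM dexamethasone final, in phenol red-free DMEM plus 10% CSS. After roughly 18-24 h at 37° C, OneGlo luminescence read and IC50 calculated.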

IC50, ≤ 100 nM:
O=C(c1ccccn1)[C@]12Cc3cnn(-c4ccc(F)cc4)c3C=C1CC[C@H](S(=O)(=O)c1ccncc1)C2 [Example 47, ((4aS,6S)-1-(4-fluorophenyl)-6-(pyridin-4-ylsulfonyl)-1,4,5,6,7,8-hexahydro-4aH-benzo[f]indazol-4a-yl)(pyridin-2-yl)methanone]
Cc1ccnc(C(=O)[C@]23Cc4cnn(-c5ccc(F)cc5)c4C=C2CC[C@H](S(=O)(=O)c2ccncc2)C3)c1 [Example 48, ((4aS,6S)-1-(4-fluorophenyl)-6-(pyridin-4-ylsulfonyl)-1,4,5,6,7,8-hexahydro-4aH-benzo[f]indazol-4a-yl)(4-methylpyridin-2-yl)methanone]
CC(C)(C)CS(=O)(=O)[C@H]1CCC2=Cc3c(cnn3-c3ccc(F)cc3)C[C@]2(C(=O)c2ccccn2)C1 [Example 49, ((4aS,6S)-1-(4-fluorophenyl)-6-(neopentylsulfonyl)-1,4,5,6,7,8-hexahydro-4aH-benzo[f]indazol-4a-yl)(pyridin-2-yl)methanone]
O=C(c1ccccn1)[C@]12Cc3cnn(-c4ccc(F)cc4)c3C=C1CC[C@H](S(=O)(=O)C1CCCC1)C2 [Example 50, ((4aS,6S)-6-(cyclopentylsulfonyl)-1-(4-fluorophenyl)-1,4,5,6,7,8-hexahydro-4aH-benzo[f]indazol-4a-yl)(pyridin-2-yl)methanone]
Cc1ccc(C(=O)[C@]23Cc4cnn(-c5ccc(F)cc5)c4C=C2CC[C@@H](S(=O)(=O)c2ccccc2)C3)nc1 [Example 51, ((4aS,6R)-1-(4-fluorophenyl)-6-(phenylsulfonyl)-1,4,5,6,7,8-hexahydro-4aH-benzo[f]indazol-4a-yl)(5-methylpyridin-2-yl)methanone]
O=C(c1ccccn1)[C@]12Cc3cnn(-c4ccc(F)cc4)c3C=C1CC[C@H](S(=O)(=O)c1cccnc1)C2 [Example 53, ((4aS,6S)-1-(4-fluorophenyl)-6-(pyridin-3-ylsulfonyl)-1,4,5,6,7,8-hexahydro-4aH-benzo[f]indazol-4a-yl)(pyridin-2-yl)methanone]
O=C(c1cc(C(F)(F)F)ccn1)[C@]12Cc3cnn(-c4ccc(F)cc4)c3C=C1CC[C@H](S(=O)(=O)c1cccnc1)C2 [Example 54, ((4aS,6S)-1-(4-fluorophenyl)-6-(pyridin-3-ylsulfonyl)-1,4,5,6,7,8-hexahydro-4aH-benzo[f]indazol-4a-yl)(4-(trifluoromethyl)pyridin-2-yl)methanone]
O=C(c1ccc(C2CC2)cn1)[C@]12Cc3cnn(-c4ccc(F)cc4)c3C=C1CC[C@H](S(=O)(=O)c1ccccn1)C2 [Example 57, (5-cyclopropylpyridin-2-yl)((4aS,6S)-1-(4-fluorophenyl)-6-(pyridin-2-ylsulfonyl)-1,4,5,6,7,8-hexahydro-4aH-benzo[f]indazol-4a-yl)methanone]
O=C(c1ccc(C(F)(F)F)cn1)[C@]12Cc3cnn(-c4ccc(F)cc4)c3C=C1CC[C@H](S(=O)(=O)c1ccccn1)C2 [Example 58, ((4aS,6S)-1-(4-fluorophenyl)-6-(pyridin-2-ylsulfonyl)-1,4,5,6,7,8-hexahydro-4aH-benzo[f]indazol-4a-yl)(5-(trifluoromethyl)pyridin-2-yl)methanone]
O=C(c1cc(C(F)(F)F)ccn1)[C@]12Cc3cnn(-c4ccc(F)cc4)c3C=C1CC[C@H](S(=O)(=O)C1CCOCC1)C2 [Example 59, ((4aS,6S)-1-(4-fluorophenyl)-6-((tetrahydro-2H-pyran-4-yl)sulfonyl)-1,4,5,6,7,8-hexahydro-4aH-benzo[f]indazol-4a-yl)(4-(trifluoromethyl)pyridin-2-yl)methanone]
CC1(O)CCC(S(=O)(=O)[C@H]2CCC3=Cc4c(cnn4-c4ccc(F)cc4)C[C@]3(C(=O)c3ccccn3)C2)CC1 (stereo partly drawn) [Example 60, ((4aS,6S)-1-(4-fluorophenyl)-6-((4-hydroxy-4-methylcyclohexyl)sulfonyl)-1,4,5,6,7,8-hexahydro-4aH-benzo[f]indazol-4a-yl)(pyridin-2-yl)methanone]
COc1ccc(C(=O)[C@]23Cc4cnn(-c5ccc(F)cc5)c4C=C2CC[C@H](S(=O)(=O)c2ccccn2)C3)nc1 [Example 61, ((4aS,6S)-1-(4-fluorophenyl)-6-(pyridin-2-ylsulfonyl)-1,4,5,6,7,8-hexahydro-4aH-benzo[f]indazol-4a-yl)(5-methoxypyridin-2-yl)methanone]
O=C(c1ccc(C2CC2)cn1)[C@]12Cc3cnn(-c4ccc(F)cc4)c3C=C1CC[C@H](S(=O)(=O)C1CCOCC1)C2 [Example 62, (5-cyclopropylpyridin-2-yl)((4aS,6S)-1-(4-fluorophenyl)-6-((tetrahydro-2H-pyran-4-yl)sulfonyl)-1,4,5,6,7,8-hexahydro-4aH-benzo[f]indazol-4a-yl)methanone]
CC(C)S(=O)(=O)[C@H]1CCC2=Cc3c(cnn3-c3ccc(F)cc3)C[C@]2(C(=O)c2ccccn2)C1 [Example 63, ((4aS,6S)-1-(4-fluorophenyl)-6-(isopropylsulfonyl)-1,4,5,6,7,8-hexahydro-4aH-benzo[f]indazol-4a-yl)(pyridin-2-yl)methanone]
O=C(c1cc(C(F)(F)F)ccn1)[C@]12Cc3cnn(-c4ccc(F)cc4)c3C=C1CC[C@H](S(=O)(=O)c1ccc(F)cc1)C2 [Example 64, ((4aS,6S)-1-(4-fluorophenyl)-6-((4-fluorophenyl)sulfonyl)-1,4,5,6,7,8-hexahydro-4aH-benzo[f]indazol-4a-yl)(4-(trifluoromethyl)pyridin-2-yl)methanone]
O=C(c1ccccn1)[C@]12Cc3cnn(-c4ccc(F)cc4)c3C=C1CC[C@H](S(=O)(=O)C1CCC(F)(F)CC1)C2 [Example 65, ((4aS,6S)-6-((4,4-difluorocyclohexyl)sulfonyl)-1-(4-fluorophenyl)-1,4,5,6,7,8-hexahydro-4aH-benzo[f]indazol-4a-yl)(pyridin-2-yl)methanone]
Cn1cc(S(=O)(=O)[C@H]2CCC3=Cc4c(cnn4-c4ccc(F)cc4)C[C@]3(C(=O)c3ccc(OC(F)(F)F)cn3)C2)cn1 [Example 66, ((4aS,6S)-1-(4-fluorophenyl)-6-((1-methyl-1H-pyrazol-4-yl)sulfonyl)-1,4,5,6,7,8-hexahydro-4aH-benzo[f]indazol-4a-yl)(5-(trifluoromethoxy)pyridin-2-yl)methanone]
O=C(c1ccccn1)[C@]12Cc3cnn(-c4ccc(F)cc4)c3C=C1CC[C@H](S(=O)(=O)C1CCC1)C2 [Example 67, ((4aS,6S)-6-(cyclobutylsulfonyl)-1-(4-fluorophenyl)-1,4,5,6,7,8-hexahydro-4aH-benzo[f]indazol-4a-yl)(pyridin-2-yl)methanone]
O=C(c1ccc(F)cn1)[C@]12Cc3cnn(-c4ccc(F)cc4)c3C=C1CC[C@H](S(=O)(=O)c1ccccn1)C2 [Example 68, ((4aS,6S)-1-(4-fluorophenyl)-6-(pyridin-2-ylsulfonyl)-1,4,5,6,7,8-hexahydro-4aH-benzo[f]indazol-4a-yl)(5-fluoropyridin-2-yl)methanone]
O=C(c1ccc(C(F)(F)F)cn1)[C@]12Cc3cnn(-c4ccc(F)cc4)c3C=C1CC[C@H](S(=O)(=O)C1CCOCC1)C2 [Example 70, ((4aS,6S)-1-(4-fluorophenyl)-6-((tetrahydro-2H-pyran-4-yl)sulfonyl)-1,4,5,6,7,8-hexahydro-4aH-benzo[f]indazol-4a-yl)(5-(trifluoromethyl)pyridin-2-yl)methanone]
O=C(c1cc(C(F)(F)F)ccn1)[C@]12Cc3cnn(-c4ccc(F)cc4)c3C=C1CC[C@H](S(=O)(=O)c1cnn(C3CC3)c1)C2 [Example 71, ((4aS,6S)-6-((1-cyclopropyl-1H-pyrazol-4-yl)sulfonyl)-1-(4-fluorophenyl)-1,4,5,6,7,8-hexahydro-4aH-benzo[f]indazol-4a-yl)(4-(trifluoromethyl)pyridin-2-yl)methanone]
Cn1cc(S(=O)(=O)[C@H]2CCC3=Cc4c(cnn4-c4ccc(F)cc4)C[C@]3(C(=O)c3ccc(C4CC4)cn3)C2)cn1 [Example 72, (5-cyclopropylpyridin-2-yl)((4aS,6S)-1-(4-fluorophenyl)-6-((1-methyl-1H-pyrazol-4-yl)sulfonyl)-1,4,5,6,7,8-hexahydro-4aH-benzo[f]indazol-4a-yl)methanone]

Source: US20210122730A1, “GLUCOCORTICOID RECEPTOR MODULATORS” (ORIC Pharmaceuticals, Inc., priority 2017, published 2021)
